US7208500B2, “Thienopyridine-phenylacetamides and their derivatives useful as new anti-angiogenic agents” (Agouron Pharmaceuticals, Inc., priority 2003, dated 2007)

Experiments:
[1] = biological target: T1, FGF-R1 intracellular kinase domain (Homo sapiens, UniProt P11362, C488A/C584S/L457V); test: FGF-R spectrophotometric assay; format: biochemical; settings: 50 nM test compound; read-out: FGF-P (% inh @ 50 nM)
T1 construct: starting from the endogenous methionine residue 456 to glutamate 766; made in house; host or cells: baculovirus vector expression system
T1 sequence (P11362 456-766 L457V/C488A/C584S): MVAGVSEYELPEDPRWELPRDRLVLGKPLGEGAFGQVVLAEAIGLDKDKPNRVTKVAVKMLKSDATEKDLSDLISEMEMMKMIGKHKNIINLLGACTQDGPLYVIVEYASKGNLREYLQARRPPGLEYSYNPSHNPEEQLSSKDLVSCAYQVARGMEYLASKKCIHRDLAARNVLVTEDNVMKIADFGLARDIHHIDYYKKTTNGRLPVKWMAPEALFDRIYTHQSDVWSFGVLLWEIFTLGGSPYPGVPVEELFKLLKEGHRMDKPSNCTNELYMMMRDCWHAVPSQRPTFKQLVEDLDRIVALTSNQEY
Description: The intracellular kinase domain of human FGF-R1 was expressed using the baculovirus vector expression system starting from the endogenous methionine residue 456 to glutamate 766, according to the residue numbering system of Mohammadi et al., Mol. Cell. Biol., 16, 977–989 (1996). In addition, the construct also has the following 3 amino acid substitutions: L457V, C488A, and C584S.
The spectrophotometric assay was carried out as described above for VEGF-R2, except for the following changes in concentration: FGF-R=50 nM, ATP=2 mM, and poly(E4Y1)=15 mM.

[2] = tested on: human umbilical vein endothelial cells (HUVEC); test: HUVEC + VEGF proliferation assay; format: cell-based; settings: VEGF-stimulated proliferation, final VEGF 6 ng/mL, 72 hours, MTT
Description: This assay determines the ability of a test compound to inhibit the growth factor-stimulated proliferation of human umbilical vein endothelial cells (“HUVEC”). HUVEC cells (passage 3–4, Clonetics, Corp.) were thawed into EGM2 culture medium (Clonetics Corp) in T75 flasks. Fresh EGM2 medium was added to the flasks 24 hours later. Four or five days later, cells were exposed to another culture medium (F12K medium supplemented with 10% fetal bovine serum (FBS), […] endothelial cell growth supplement (ECGS), and 0.1 mg/mL heparin). Exponentially-growing HUVEC cells were used in experiments thereafter. Ten to twelve thousand HUVEC cells were plated in 96-well dishes in […] of rich, culture medium (described above). The cells were allowed to attach for 24 hours in this medium. The medium was then removed by aspiration and […] of starvation media (F12K+1% FBS) was added to each well. After 24 hours, […] of test agent dissolved in 1% DMSO in starvation medium or this vehicle alone was added into each treatment well; the final DMSO concentration was 0.1%. One hour later, […] of VEGF (30 ng/mL) in starvation media was added to all wells except those containing untreated controls; the final VEGF concentration was 6 ng/mL. Cellular proliferation was quantified 72 hours later by MTT dye reduction, at which time cells were exposed for 4 hours MTT (Promega Corp.). Dye reduction was stopped by addition of a stop solution (Promega Corp.) and absorbance at 595 nm was determined on a 96-well spectrophotometer plate reader.

[3] = biological target: T2, unphosphorylated VEGF-R2D50 (FLVK), cytosolic domain of human VEGF-R2 (Homo sapiens, UniProt P35968, DEL940-989/E990V); test: VEGF-R2 coupled spectrophotometric assay (FLVK); format: biochemical
T2 construct: VEGF-R2D50 contains residues 806–939 and 990–1171; made in house; host or cells: baculovirus/insect cell system
T2 sequence (P35968 with tags, fused parts or gaps DEL940-989/E990V limits assumed): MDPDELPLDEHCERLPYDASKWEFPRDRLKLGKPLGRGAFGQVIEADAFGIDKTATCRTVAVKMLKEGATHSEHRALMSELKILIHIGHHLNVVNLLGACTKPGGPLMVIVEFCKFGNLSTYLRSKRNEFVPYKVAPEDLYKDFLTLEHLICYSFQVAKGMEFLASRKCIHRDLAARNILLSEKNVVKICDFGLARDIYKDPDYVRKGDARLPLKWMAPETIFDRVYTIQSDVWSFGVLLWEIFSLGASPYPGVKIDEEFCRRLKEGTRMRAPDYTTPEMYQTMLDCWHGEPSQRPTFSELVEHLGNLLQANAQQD
Source text: This construct determines the ability of a test compound to inhibit tyrosine kinase activity. A construct (VEGF-R2D50) of the cytosolic domain of human vascular endothelial growth factor receptor 2 (VEGF-R2) lacking the 50 central residues of the 68 residues of the kinase insert domain was expressed in a baculovirus/insect cell system. Of the 1356 residues of full-length VEGF-R2, VEGF-R2D50 contains residues 806–939 and 990–1171, and also one point mutation (E990V) within the kinase insert domain relative to wild-type VEGF-R2. Autophosphorylation of the purified construct was performed by incubation of the enzyme at a concentration of […] in the presence of 3 mM ATP and 40 mM MgCl2 in 100 mM HEPES, pH 7.5, containing 5% glycerol and 5 mM DTT, at 4° C. for 2 h. […] See Parast et al., Biochemistry, 37, 16788–16801 (1998).
The production of ADP from ATP that accompanies phosphoryl transfer was coupled to oxidation of NADH using phosphoenolpyruvate (PEP) and a system having pyruvate kinase (PK) and lactic dehydrogenase (LDH). The oxidation of NADH was monitored by following the decrease of absorbance at 340 nm (e340=6.22 cm^−1 mM^−1) using a Beckman DU 650 spectrophotometer. Assay conditions for phosphorylated VEGF-R2D50 (indicated as FLVK-P in the tables below) were the following: 1 mM PEP; […]; 50 units of LDH/mL; 20 units of PK/mL; 5 mM DTT; 5.1 mM poly(E4Y1); 1 mM ATP; and 25 mM MgCl2 in 200 mM HEPES, pH 7.5. Assay conditions for unphosphorylated VEGF-R2D50 (indicated as FLVK in the tables) were the following: 1 mM PEP; […]; 50 units of LDH/mL; 20 units of PK/mL; 5 mM DTT; 20 mM poly(E4Y1); 3 mM ATP; and 60 mM MgCl2 and 2 mM MnCl2 in 200 mM HEPES, pH 7.5. Assays were initiated with 5 to 40 nM of enzyme. Ki values were determined by measuring enzyme activity in the presence of varying concentrations of test compounds. The percent inhibition at 50 nm (% inhibition@50 nm) was determined by linear least-squares regression analysis of absorpbance as a function of time. The binding inhibitions were fitted to equation as described by Morrison. The data were analyzed using Enzyme Kinetic and Kaleidagraph software.

In the case of `Cc1cc(C)nc(NC(=O)Cc2ccc(Oc3ccnc4cc(C(=O)N5C[C@@H](O)[C@@H](O)C5)sc34)cc2)c1` [Example 3], the inhibition at 0.05 µM [1] is reported as 0 to 5% and the IC50 [2] is reported as < 1 nM.
In the case of `Cc1cc(C)nc(NC(=O)Cc2ccc(Oc3ccnc4cc(C(=O)N5CC[C@@H](N(C)C)C5)sc34)cc2)c1` [Example 4, 2-{4-[2-((R)-3-Dimethylamino-pyrrolidine-1-carbonyl)-thieno[3,2-b]pyridin-7-yloxy]-phenyl}-N-(4,6-dimethyl-pyridin-2-yl)-acetamide], the Ki [3] is reported as < 1 nM, the inhibition at 0.05 µM [1] is reported as 5 to 10% and the IC50 [2] is reported as 1 to 10 nM.
`Cc1cc(C)nc(NC(=O)Cc2ccc(Oc3ccnc4cc(C(=O)N(C)CCN(C)C)sc34)cc2)c1` [Example 6, 7-{4-[(4,6-Dimethyl-pyridin-2-ylcarbamoyl)-methyl]-phenoxy}-thieno[3,2-b]pyridine-2-carboxylic acid (2-dimethylamino-ethyl)-methyl-amide] was tested, and the Ki [3] was < 1 nM, the inhibition at 0.05 µM [1] was 5 to 10% and the IC50 [2] was > 10 nM.
In the case of `Cc1cc(C)nc(NC(=O)Cc2ccc(Oc3ccnc4cc(C(=O)N5CCC5)sc34)cc2)c1` [Example 22, 2-{4-[2-(Azetidine-1-carbonyl)-thieno[3,2-b]pyridin-7-yloxy]-phenyl}-N-(4,6-dimethyl-pyridin-2-yl)-acetamide], the inhibition at 0.05 µM [1] is reported as 0 to 5% and the IC50 [2] is reported as < 1 nM.
`O=C(Cc1ccc(Oc2ccnc3cc(C(=O)N4CCC4)sc23)cc1)Nc1ccc2[nH]ncc2c1` [Example 36, 2-{4-[2-(Azetidine-1-carbonyl)-thieno[3,2-b]pyridin-7-yloxy]-phenyl}-N-(1H-indazol-5-yl)-acetamide] was tested, and the inhibition at 0.05 µM [1] was 0 to 5% and the IC50 [2] was > 10 nM.
For `O=C(Cc1ccc(Oc2ccnc3cc(C(=O)N4CCC4)sc23)cc1)Nc1ccc(N2CCOCC2)nc1` [Example 38, 2{-4-[2-(Azetidine-1-carbonyl)-thieno[3,2-b]pyridin-7-yloxy]-phenyl}-N-(6-morpholin-4-yl-pyridin-3-yl)-acetamide], the inhibition at 0.05 µM [1] was 0 to 5% and the IC50 [2] was > 10 nM.
`Cc1cc(NC(=O)Cc2ccc(Oc3ccnc4cc(C(=O)N5CCC5)sc34)cc2Cl)nn1C` [Example 56, 2-{4-[2-(Azetidine-1-carbonyl)-thieno[3,2-b]pyridin-7-yloxy]-2-chloro-phenyl}-N-(1,5-dimethyl-1H-pyrazol-3-yl)-acetamide] was tested, and the inhibition at 0.05 µM [1] was 0 to 5% and the IC50 [2] was > 10 nM.
`COC(C(=O)Nc1cc(C)no1)c1ccc(Oc2ccnc3cc(C(=O)N4CCC4)sc23)cc1` (centres unmarked) [Example 79, 2-{4-[2-(Azetidine-1-carbonyl)-thieno[3,2-b]pyridin-7-yloxy]-phenyl}-2-methoxy-N-(3-methyl-isoxazol-5-yl)-acetamide] was tested, and the Ki [3] was > 10 nM and the inhibition at 0.05 µM [1] was 0 to 5%.
With `Cc1cc(NC(=O)C(O)c2ccc(Oc3ccnc4cc(C(=O)N5CCC5)sc34)cc2)on1` (centres unmarked) [Example 80, 2-{4-[2-(Azetidine-1-carbonyl)-thieno[3,2-b]pyridin-7-yloxy]-phenyl}-2-hydroxy-N-(3-methyl-isoxazol-5-yl)-acetamide] the Ki [3] was > 10 nM and the inhibition at 0.05 µM [1] was 5 to 10%.
`CCCCNC(=O)C(O)c1ccc(Oc2ccnc3cc(C(=O)N4CCC4)sc23)cc1` (centres unmarked) [Example 82, 2-{4-[2-(Azetidine-1-carbonyl)-thieno[3,2-b]pyridin-7-yloxy]-phenyl}-N-butyl-2-hydroxy-acetamide] was tested, and the Ki [3] was > 10 nM and the inhibition at 0.05 µM [1] was 0 to 5%.
With `COC(C(=O)Nc1ccccn1)c1ccc(Oc2ccnc3cc(C(=O)N4CCC4)sc23)cc1` (centres unmarked) [Example 83, 2-{4-[2-(Azetidine-1-carbonyl)-thieno[3,2-b]pyridin-7-yloxy]-phenyl}-2-methoxy-N-pyridin-2-yl-acetamide] the Ki [3] was > 10 nM and the inhibition at 0.05 µM [1] was 5 to 10%.
For `O=C(Nc1ccccn1)C(O)c1ccc(Oc2ccnc3cc(C(=O)N4CCC4)sc23)cc1` (centres unmarked) [Example 84, 2-{4-[2-(Azetidine-1-carbonyl)-thieno[3,2-b]pyridin-7-yloxy]-phenyl}-2-hydroxy-N-pyridin-2-yl-acetamide], the Ki [3] was > 10 nM and the inhibition at 0.05 µM [1] was 5 to 10%.
